Source: ChEMBL document CHEMBL5532758, “Deuterium labeling improves the therapeutic index of 3,3'-diselenodipropionic acid as an anticancer agent: insights from redox reactions” (RSC Med Chem, 2024)
Calls of active or inactive are those of the source. The calls are words filed in the database; no cut-off is given here.

How the values were obtained:
A549 [1] = test: Antiproliferative activity against human A549 cells assessed as inhibition of cell proliferation incubated for 48 hrs by MTT assay; assay type: functional, cell-based; settings: A549, 48 h
NCI-H1975 = test: Antiproliferative activity against human NCI-H1975 cells assessed as inhibition of cell proliferation incubated for 48 hrs by MTT assay; assay type: functional, cell-based; settings: NCI-H1975, 48 h
NCI-H3122 = test: Antiproliferative activity against human NCI-H3122 cells assessed as inhibition of cell proliferation incubated for 48 hrs by MTT assay; assay type: functional, cell-based; settings: NCI-H3122, 48 h
[2] = Cytotoxicity against human WI-38 cells assessed as inhibition of cell proliferation incubated for 48 hrs by MTT assay; assay type: toxicity, cell-based
[3] = Cytotoxicity against human WI-26 AV4 cells assessed as inhibition of cell proliferation incubated for 48 hrs by MTT assay; assay type: toxicity, cell-based
[4] = Cytotoxicity against human MCF-10A cells assessed as inhibition of cell proliferation incubated for 48 hrs by MTT assay; assay type: toxicity, cell-based
[5] = Cytotoxicity against human Intestine 407 cells assessed as inhibition of cell proliferation incubated for 48 hrs by MTT assay; assay type: toxicity, cell-based
[6] = Therapeutic index, ratio of IC50 for cytotoxicity against human WI-38 cells to IC50 for antiproliferative activity against human A549 cells by MTT assay; assay type: toxicity, cell-based; settings: WI-38 cells versus A549 cells, read-out: Ratio IC50
[7] = Therapeutic index, ratio of IC50 for cytotoxicity against human WI-26 AV4 cells to IC50 for antiproliferative activity against human A549 cells by MTT assay; assay type: toxicity, cell-based; settings: WI-26 AV4 cells versus A549 cells, read-out: Ratio IC50
[8] = Therapeutic index, ratio of IC50 for cytotoxicity against human MCF-10A cells to IC50 for antiproliferative activity against human A549 cells by MTT assay; assay type: toxicity, cell-based; settings: MCF-10A cells versus A549 cells, read-out: Ratio IC50
[9] = Therapeutic index, ratio of IC50 for cytotoxicity against human Intestine 407 cells to IC50 for antiproliferative activity against human A549 cells by MTT assay; assay type: toxicity, cell-based; settings: Intestine 407 cells versus A549 cells, read-out: Ratio IC50
[10] = Therapeutic index, ratio of IC50 for cytotoxicity against human WI-38 cells to IC50 for antiproliferative activity against human NCI-H1975 cells by MTT assay; assay type: toxicity, cell-based; settings: WI-38 cells versus NCI-H1975 cells, read-out: Ratio IC50
[11] = Therapeutic index, ratio of IC50 for cytotoxicity against human WI-26 AV4 cells to IC50 for antiproliferative activity against human NCI-H1975 cells by MTT assay; assay type: toxicity, cell-based; settings: WI-26 AV4 cells versus NCI-H1975 cells, read-out: Ratio IC50
[12] = Therapeutic index, ratio of IC50 for cytotoxicity against human MCF10A cells to IC50 for antiproliferative activity against human NCI-H1975 cells by MTT assay; assay type: toxicity, cell-based; settings: MCF10A cells versus NCI-H1975 cells, read-out: Ratio IC50
[13] = Therapeutic index, ratio of IC50 for cytotoxicity against human Intestine 407 cells to IC50 for antiproliferative activity against human NCI-H1975 cells by MTT assay; assay type: toxicity, cell-based; settings: Intestine 407 cells versus NCI-H1975 cells, read-out: Ratio IC50
[14] = Therapeutic index, ratio of IC50 for cytotoxicity against human WI-38 cells to IC50 for antiproliferative activity against human NCI-H3122 cells by MTT assay; assay type: toxicity, cell-based; settings: WI-38 cells versus NCI-H3122 cells, read-out: Ratio IC50
[15] = Therapeutic index, ratio of IC50 for cytotoxicity against human WI-26 AV4 cells to IC50 for antiproliferative activity against human NCI-H3122 cells by MTT assay; assay type: toxicity, cell-based; settings: WI-26 AV4 cells versus NCI-H3122 cells, read-out: Ratio IC50
[16] = Therapeutic index, ratio of IC50 for cytotoxicity against human MCF-10A cells to IC50 for antiproliferative activity against human NCI-H3122 cells by MTT assay; assay type: toxicity, cell-based; settings: MCF-10A cells versus NCI-H3122 cells, read-out: Ratio IC50
[17] = Therapeutic index, ratio of IC50 for cytotoxicity against human Intestine 407 cells to IC50 for antiproliferative activity against human NCI-H3122 cells by MTT assay; assay type: toxicity, cell-based; settings: Intestine 407 cells versus NCI-H3122 cells, read-out: Ratio IC50
A549 [18] = test: Anti-clonogenic activity against human A549 cells assessed as reduction in size and number of surviving clones incubated for 7 days by crystal violet staining method; assay type: functional, cell-based; settings: A549, 168 h
WI-38 [19] = test: Cytotoxicity against human WI-38 cells assessed as reduction in size and number of surviving clones incubated for 7 days by crystal violet staining method; assay type: toxicity, cell-based
A549 [20] = test: (§1) Radiosensitization activity against human A549 cells assessed as potentiation of radiation-induced cytotoxicity by measuring dose modification factor at 0.5 uM pre-irradiated with gamma radiation at 4.5 Gy followed by incubation with drug and measured after 7 days by clonogenic assay relative to control; assay type: functional; settings: time 7 day
WI-38 [21] = test: Radioprotective activity against human WI-38 cells assessed as inhibition of radiation-induced cytotoxicity by measuring dose modification factor at 0.5 uM incubated for 24 hrs followed by irradiation with gamma radiation at 2 to 12 Gy by clonogenic assay relative to control; assay type: functional
[22] = Increase in GPx activity in human WI-38 cells at 10 uM incubated for 24 hrs relative to control; assay type: functional
[23] = Increase in TxrR activity in human WI-38 cells at 10 uM incubated for 24 hrs relative to control; assay type: functional
WI-38 [24] = test: Upregulation of GPx1 mRNA expression in human WI-38 cells at 10 uM incubated for 6 hrs by real-time PCR analysis; assay type: functional, cell-based
[25] = Upregulation of GPx1 mRNA expression in human WI-38 cells at 10 uM incubated for 24 hrs by real-time PCR analysis relative to control; assay type: functional
[26] = Upregulation of TrxR1 mRNA expression in human WI-38 cells at 10 uM incubated for 6 hrs by real-time PCR analysis relative to control; assay type: functional
[27] = Upregulation of TrxR1 mRNA expression in human WI-38 cells at 10 uM incubated for 24 hrs by real-time PCR analysis relative to control; assay type: functional
WI-38 [28] = test: Radioprotective activity against human WI-38 cells assessed as recovery of radiation-induced decrease in GPx activity at 10 uM pretreated for 24 hrs followed by irradiation with gamma radiation for 24 hrs; assay type: functional, cell-based; settings: time 48.0 hrs
WI-38 [29] = test: Radioprotective activity against human WI-38 cells assessed as recovery of radiation-induced decrease in TrxR activity at 10 uM pretreated for 24 hrs followed by irradiation with gamma radiation for 24 hrs; assay type: functional, cell-based; settings: time 48.0 hrs
GR = test: Reduction in intracellular activity of GR in human WI-38 cells at 150 uM incubated for 24 hrs relative to control; assay type: toxicity, cell-based
GST = test: Reduction in intracellular activity of GST in human WI-38 cells at 150 uM incubated for 24 hrs relative to control; assay type: toxicity, cell-based
[30] = Drug reactivity with trichloromethyl peroxyl radical (CCl3O2.) assessed as rate constant by ABTS2- based competition assay; assay type: physicochemical
[31] = Drug reactivity with H2O2 assessed as rate constant by absorbance based analysis; assay type: physicochemical
[32] = Drug reactivity with Hypochlorous acid (HOCl) assessed as rate constant by CBA based competition assay; assay type: physicochemical
[33] = Drug reduction in DMSO-d6 in presence of 1 equiv. NAC by 77Se NMR spectroscopy; assay type: physicochemical
A549 [34] = test: as §1, with “4” for “4.5”; assay type: functional; settings: time 7 day

Question: Which results are given for O=C(O)CC[Se][Se]CCC(=O)O?
Answer: IC50 (A549 [1]): 15.2 µM; IC50 (NCI-H1975): 10.6 µM; IC50 (NCI-H3122): 21.5 µM; IC50 at 48 h [2]: 171 µM; IC50 at 48 h [3]: 151 µM; IC50 at 48 h [4]: 61.2 µM; IC50 at 48 h [5]: 483 µM; selectivity ratio [6]: 11.2; selectivity ratio [7]: 9.9; selectivity ratio [8]: 4; selectivity ratio [9]: 31.7; selectivity ratio [10]: 16.1; selectivity ratio [11]: 14.2; selectivity ratio [12]: 5.7; selectivity ratio [13]: 32.5; selectivity ratio [14]: 7.9; selectivity ratio [15]: 7; selectivity ratio [16]: 2.8; selectivity ratio [17]: 3.2; IC50 (A549 [18]): 1200 nM; IC50 (WI-38 [19]): 17.9 µM; Ratio (A549 [20]): 0.87; Ratio (WI-38 [21]): 1.12; fold change (FC) [22]: ~1.34; fold change (FC) [23]: ~2; Activity (WI-38 [24]): inactive; Activity (WI-38 [24]; tested as the 2H-labelled form): inactive; fold change (FC) [25]: ~1.73; fold change (FC) [26]: ~4.02; fold change (FC) [27]: ~6.06; Activity (WI-38 [28]): Active; Activity (WI-38 [28]; tested as the 2H-labelled form): Active; Activity (WI-38 [29]): Active; Activity (WI-38 [29]; tested as the 2H-labelled form): Active; inhibition at 24 h, 150 µM (GR): 32%; inhibition at 24 h, 150 µM (GST): 24%; K [30]: 1 10^8/M/s; K [31]: 5.2 10^-2/M/s; K [32]: 1.6 10^5/M/s; Drug metabolism [33]: Metabolite_Notdetected

Question: Which results are given for [2H]C([2H])([Se][Se]C([2H])([2H])C([2H])([2H])C(=O)O)C([2H])([2H])C(=O)O?
Answer: IC50 (A549 [1]): 15.2 µM; IC50 (NCI-H1975): 4.6 µM; IC50 (NCI-H3122): 46.5 µM; IC50 at 48 h [2]: 1000 µM; IC50 at 48 h [3]: 550 µM; IC50 at 48 h [4]: 150 µM; IC50 at 48 h [5]: 507 µM; selectivity ratio [6]: 65.7; selectivity ratio [7]: 36.2; selectivity ratio [8]: 9.8; selectivity ratio [9]: 33.3; selectivity ratio [10]: 217; selectivity ratio [11]: 120; selectivity ratio [12]: 45.5; selectivity ratio [13]: 110; selectivity ratio [14]: 21.5; selectivity ratio [15]: 11.8; selectivity ratio [16]: 22.4; selectivity ratio [17]: 10.8; IC50 (A549 [18]): 900 nM; IC50 (WI-38 [19]): 35.5 µM; Ratio (A549 [34]): 0.83; Ratio (WI-38 [21]): 1.16; fold change (FC) [22]: ~1.53; fold change (FC) [23]: ~1.71; fold change (FC) [25]: ~1.69; fold change (FC) [26]: ~2.04; fold change (FC) [27]: ~5.17; inhibition at 24 h, 150 µM (GR): 13%; inhibition at 24 h, 150 µM (GST): 8%; K [30]: 0.8 10^8/M/s; K [31]: 3.3 10^-2/M/s; K [32]: 9.5 10^4/M/s
